Source: patent publication US9844536B2, “3-(1H-imidazo[4,5-C]pyridin-2-yl)-1H-pyrazolo[3,4-C]pyridine and therapeutic uses thereof” (Samumed, LLC, priority 2014, dated 2017)

Experiments:
[1] = tested on: Wnt pathway (Sp5-Luc reporter, SW480 cells); experiment: Sp5-Luc reporter gene screening assay for Wnt activity in SW480 colon carcinoma cells; assay type: cell-based; conditions: Homo sapiens
How it was run: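 IC50 values come from variable-slope four-parameter fits of luciferase signal normalized to DMSO wells. Stable Sp5-Luc reporter SW480 colon carcinoma cells were exposed to compounds in a 3-fold dilution series (source plates from 10 mM stock) for forty-two hours at 37 °C.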

LL29 cells = experiment: Inhibition of the fibrotic process (αSMA staining) in TGF-β1 treated primary human fibroblasts from IPF patients; assay type: cell-based; conditions: Fibroblast, 96 h, TGF-β1 20 ng/mL, 4 days, dose-response 10 μM to 1.87 nM, read-out: Inhibition of fibrosis EC50
How it was run: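 LL29 IPF lung fibroblasts in 1% FBS were stimulated with TGF-β1 (20 ng/mL) and treated 4 days at 37 °C with compound (11 points, 10 μM–1.87 nM, 0.1% DMSO). The % αSMA-positive cells, imaged after excluding SYTOX-positive dead cells, was normalized to TGF-β1/DMSO wells. EC50 came from nonlinear regression over triplicates.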

SMILES	IC50 [1]	EC50 (LL29 cells)
CCCCC(=O)Nc1cncc(-c2cc3c(-c4nc5c(-c6cc(F)cc(NCCN(C)C)c6)nccc5[nH]4)n[nH]c3cn2)c1 [Compound 460, N-(5-(3-(4-(3-((2-(Dimethylamino)ethyl)amino)-5-fluorophenyl)-1H-imidazo[4,5-c]pyridin-2-yl)-1H-pyrazolo[3,4-c]pyridin-5-yl)pyridin-3-yl)pentanamide]	203 nM	≥ 9990 nM
CN(C)CCNc1cc(F)cc(-c2nccc3[nH]c(-c4n[nH]c5cnc(-c6cncc(CNCC7CCCC7)c6)cc45)nc23)c1 [Compound 466, N^1-(3-(2-(5-(5-(((Cyclopentylmethyl)amino)methyl)pyridin-3-yl)-1H-pyrazolo[3,4-c]pyridin-3-yl)-1H-imidazo[4,5-c]pyridin-4-yl)-5-fluorophenyl)-N2,N2-dimethylethane-1,2-diamine]	342 nM	74 nM
Fc1cccc(-c2nccc3[nH]c(-c4n[nH]c5cnc(C6=CCNCC6)cc45)nc23)c1 [Compound 938, 3-(4-(3-Fluorophenyl)-1H-imidazo[4,5-c]pyridin-2-yl)-5-(1,2,3,6-tetrahydropyridin-4-yl)-1H-pyrazolo[3,4-c]pyridine]	125 nM	198 nM
Cc1ncc(-c2cc3c(-c4nc5c(-c6cccc(F)c6)nccc5[nH]4)n[nH]c3cn2)n1C [Compound 941, 5-(1,2-Dimethyl-1H-imidazol-5-yl)-3-(4-(3-fluorophenyl)-1H-imidazo[4,5-c]pyridin-2-yl)-1H-pyrazolo[3,4-c]pyridine]	1010 nM	76 nM
Oc1cncc(-c2cc3c(-c4nc5c(-c6cccc(F)c6)nccc5[nH]4)n[nH]c3cn2)c1 [Compound 949, 5-(3-(4-(3-Fluorophenyl)-1H-imidazo[4,5-c]pyridin-2-yl)-1H-pyrazolo[3,4-c]pyridin-5-yl)pyridin-3-ol]	28 nM	≥ 9990 nM
Fc1cccc(-c2nccc3[nH]c(-c4n[nH]c5cnc(-c6ccccn6)cc45)nc23)c1 [Compound 953, 3-(4-(3-Fluorophenyl)-1H-imidazo[4,5-c]pyridin-2-yl)-5-(pyridin-2-yl)-1H-pyrazolo[3,4-c]pyridine]	320 nM	1940 nM
CN(C)CC(=O)Nc1cncc(-c2cc3c(-c4nc5c(-c6cccc(F)c6)nccc5[nH]4)n[nH]c3cn2)c1 [Compound 1437, 2-(Dimethylamino)-N-(5-(3-(4-(3-fluorophenyl)-1H-imidazo[4,5-c]pyridin-2-yl)-1H-pyrazolo[3,4-c]pyridin-5-yl)pyridin-3-yl)acetamide]	38 nM	342 nM

More lines, main results first:

IC50 [1]	SMILES	EC50 (LL29 cells)
30.8 nM	CS(=O)(=O)NCc1cc(F)cc(-c2nccc3[nH]c(-c4n[nH]c5cnc(-c6cncnc6)cc45)nc23)c1 [Compound 442, N-(3-Fluoro-5-(2-(5-(pyrimidin-5-yl)-1H-pyrazolo[3,4-c]pyridin-3-yl)-1H-imidazo[4,5-c]pyridin-4-yl)benzyl)methanesulfonamide]	≤ 9 nM
394 nM	CCNCc1cncc(-c2cc3c(-c4nc5c(-c6cc(F)cc(NCCN(C)C)c6)nccc5[nH]4)n[nH]c3cn2)c1 [Compound 448, N^1-(3-(2-(5-(5-((Ethylamino)methyl)pyridin-3-yl)-1H-pyrazolo[3,4-c]pyridin-3-yl)-1H-imidazo[4,5-c]pyridin-4-yl)-5-fluorophenyl)-N2,N2-dimethylethane-1,2-diamine]	≥ 9990 nM
266 nM	CC(C)Nc1cncc(-c2cc3c(-c4nc5c(-c6cc(F)cc(NCCN(C)C)c6)nccc5[nH]4)n[nH]c3cn2)c1 [Compound 454, N^1-(3-Fluoro-5-(2-(5-(5-(isopropylamino)pyridin-3-yl)-1H-pyrazolo[3,4-c]pyridin-3-yl)-1H-imidazo[4,5-c]pyridin-4-yl)phenyl)-N2,N2-dimethylethane-1,2-diamine]	1620 nM
> 10000 nM	Fc1cccc(-c2nccc3[nH]c(-c4n[nH]c5cnc(C6CCNCC6)cc45)nc23)c1 [Compound 937, 3-(4-(3-Fluorophenyl)-1H-imidazo[4,5-c]pyridin-2-yl)-5-(piperidin-4-yl)-1H-pyrazolo[3,4-c]pyridine]	2610 nM
1 nM	Fc1cccc(-c2nccc3[nH]c(-c4n[nH]c5cnc(-c6cn[nH]c6)cc45)nc23)c1 [Compound 939, 3-(4-(3-Fluorophenyl)-1H-imidazo[4,5-c]pyridin-2-yl)-5-(1H-pyrazol-4-yl)-1H-pyrazolo[3,4-c]pyridine]	≤ 9 nM
> 10000 nM	O=C(CC1CCNCC1)Nc1cncc(-c2cc3c(-c4nc5c(-c6cccc(F)c6)nccc5[nH]4)n[nH]c3cn2)c1 [Compound 945, N-(5-(3-(4-(3-Fluorophenyl)-1H-imidazo[4,5-c]pyridin-2-yl)-1H-pyrazolo [3,4-c]pyridin-5-yl)pyridin-3-yl)-2-(piperidin-4-yl)acetamide]	60 nM
20 nM	Fc1cccc(-c2nccc3[nH]c(-c4n[nH]c5cnc(-c6cnccn6)cc45)nc23)c1 [Compound 954, 3-(4-(3-Fluorophenyl)-1H-imidazo[4,5-c]pyridin-2-yl)-5-(pyrazin-2-yl)-1H-pyrazolo[3,4-c]pyridine]	≥ 9990 nM
135 nM	CC(C)CC(=O)Nc1cncc(-c2cc3c(-c4nc5c(-c6cc(O)cc(F)c6)nccc5[nH]4)n[nH]c3cn2)c1 [Compound 1350, N-(5-(3-(4-(3-Fluoro-5-hydroxyphenyl)-1H-imidazo[4,5-c]pyridin-2-yl)-1H-pyrazolo[3,4-c]pyridin-5-yl)pyridin-3-yl)-3-methylbutanamide]	135 nM
151 nM	COc1cc(F)cc(-c2nccc3[nH]c(-c4n[nH]c5cnc(-c6cncc(NC(=O)CC(C)C)c6)cc45)nc23)c1 [Compound 1394, N-(5-(3-(4-(3-Fluoro-5-methoxyphenyl)-1H-imidazo[4,5-c]pyridin-2-yl)-1H-pyrazolo[3,4-c]pyridin-5-yl)pyridin-3-yl)-3-methylbutanamide]	332 nM
